This passage reports IC50 results from patent publication US12528818B2, “Compositions and methods for inhibition of RAS” (Leidos Biomedical Research, Inc., priority 2021, dated 2026).

The experiment concerns pERK in NCI-H358 cells. Briefly: Cell-based pERK HTRF assay (pERK inhibition in H358 cells). As to conditions: Homo sapiens, NCI-H358, 0.5 h, pERK inhibition IC50, NCI-H358 cells, 30 min incubation; read-out: PERK in H358 cell.

Regarding `C=CC(=O)N1C[C@H](C)N(c2nc(OC[C@]34CCCN3C[C@H](F)C4)nc3c(F)c(-c4ccc(F)c5sc(N)nc45)c(C(F)(F)F)cc23)C[C@H]1C` [Compound 204, 1-((2R,5S)-4-(7-(2-amino-7-fluorobenzo[d]thiazol-4-yl)-8-fluoro-2-(((2R,7aR)-2-fluorotetrahydro-1H-pyrrolizin-7a(5H)-yl)methoxy)-6-(trifluoromethyl)quinazolin-4-yl)-2,5-dimethylpiperazin-1-yl)prop-2-en-1-one], the IC50 was below 0.1 µM.
Regarding `C=CC(=O)N1CCC(N(C)c2nc(OC[C@@H]3CCCN3C)nc3c(F)c(-c4ccc(F)c5sc(N)c(C#N)c45)ccc23)[C@H]1C` (some centres unmarked) [Compound 420], the IC50 was below 0.1 µM.
